Laboratory results: patent publication US10098964B2, “Inclusion complexes and methods for making the same” (The Board of Trustees of the University of Illinois, priority 2015, dated 2018)

How the values were obtained:
[1] = In-vitro fermentation (large intestine): butyrate produced; type: in vitro ADME
[2] = cited from earlier work

Row | SMILES | Butyrate produced, 4 hr ([1]; fermentation 4 hr, representative of ascending large intestine) | Butyrate produced, 8 hr ([1]; fermentation 8 hr, representative of transverse large intestine) | Butyrate produced, 12 hr ([1]; fermentation 12 hr, representative of descending large intestine) | half-life in human plasma [2] [min]
1 | CCCC(=O)OCC(COC(=O)CCC)OC(=O)CCC [Tributyrin, 1,3-di(butanoyloxy)propan-2-yl butanoate] | 106389.69 µg/g (DMB) | 164605.74 µg/g (DMB) | 134093.05 µg/g (DMB) | –
2 | CCCC(=O)O [butyrate, butyric acid] | – | – | – | < 6
